Measured values reported in the NIST ThermoML archive (doi:10.1021/acs.jced.7b00429).

Assay: xn = mol fraction of the nth substance listed
Settings: 100 kPa, Liquid; for viscosity: Falling or rolling sphere viscometry; for speed of sound: Frequency=3 MHz, Single path-length method; for mass density: Vibrating tube method

CCn1cc[n+](C)c1.O=S(=O)([O-])C(F)(F)F [1-ethyl-3-methylimidazolium trifluoromethanesulfonate] + C[S+](C)[O-]
Settings	mass density [kg/m3]	speed of sound [m/s]	viscosity [mPa·s]
298.15 K, x1 = 0.1068	1168.75	1488	3.65
298.15 K, x1 = 0.2015	1216.25	1477.1	5.35
298.15 K, x1 = 0.3077	1256.63	1468.6	7.89
298.15 K, x1 = 0.4023	1284.76	1462.5	11.82
298.15 K, x1 = 0.4933	1306.53	1456.5	16.26
298.15 K, x1 = 0.6022	1328.03	1453	21.05
298.15 K, x1 = 0.6993	1344	1449.9	26.12
298.15 K, x1 = 0.7929	1357.15	1445.6	31.96
298.15 K, x1 = 0.9008	1370.28	1441.2	38.88
298.15 K, x1 = 1	1379.91	1436	45.67
303.15 K, x1 = 0.1068	1164	1472.7	3.26
303.15 K, x1 = 0.2015	1211.78	1462.7	4.72
303.15 K, x1 = 0.3077	1252.35	1454.9	6.9
303.15 K, x1 = 0.4023	1280.52	1449.4	10.2
303.15 K, x1 = 0.4933	1302.34	1443.8	13.93
303.15 K, x1 = 0.6022	1323.93	1440.6	17.95
303.15 K, x1 = 0.6993	1339.92	1437.8	22.18
303.15 K, x1 = 0.7929	1353.08	1433.9	27.03
303.15 K, x1 = 0.9008	1366.19	1430	32.74
303.15 K, x1 = 1	1375.71	1425.4	38.31
308.15 K, x1 = 0.1068	1159.28	1457.5	2.94
308.15 K, x1 = 0.2015	1207.5	1448.3	4.2
308.15 K, x1 = 0.3077	1248.17	1441.2	6.08
308.15 K, x1 = 0.4023	1276.4	1436.4	8.91
308.15 K, x1 = 0.4933	1298.26	1431.3	12.06
308.15 K, x1 = 0.6022	1319.96	1428.4	15.48
308.15 K, x1 = 0.6993	1335.83	1425.8	19.05
308.15 K, x1 = 0.7929	1349.06	1422.3	23.08
308.15 K, x1 = 0.9008	1362.09	1418.7	27.81
308.15 K, x1 = 1	1371.51	1414.3	32.38
313.15 K, x1 = 0.1068	1154.49	1442.4	2.66
313.15 K, x1 = 0.2015	1203.23	1434	3.76
313.15 K, x1 = 0.3077	1243.91	1427.7	5.42
313.15 K, x1 = 0.4023	1272.21	1423.5	7.85
313.15 K, x1 = 0.4933	1294.19	1418.8	10.52
313.15 K, x1 = 0.6022	1315.98	1416.5	13.47
313.15 K, x1 = 0.6993	1331.89	1414	16.52
313.15 K, x1 = 0.7929	1345.04	1410.8	19.91
313.15 K, x1 = 0.9008	1358.06	1407.4	23.88
313.15 K, x1 = 1	1367.36	1403	27.68
318.15 K, x1 = 0.1068	1149.74	1425.5	2.42
318.15 K, x1 = 0.2015	1198.95	1419.8	3.39
318.15 K, x1 = 0.3077	1239.74	1414.3	4.85
318.15 K, x1 = 0.4023	1268.06	1410.8	6.96
318.15 K, x1 = 0.4933	1290.23	1406.5	9.26
318.15 K, x1 = 0.6022	1312.02	1404.5	11.82
318.15 K, x1 = 0.6993	1327.93	1401.9	14.45
318.15 K, x1 = 0.7929	1341	1399.5	17.32
318.15 K, x1 = 0.9008	1353.95	1396.5	20.68
318.15 K, x1 = 1	1363.21	1392.7	23.86
323.15 K, x1 = 0.1068	1144.99	1410.4	2.22
323.15 K, x1 = 0.2015	1194.68	1405.7	3.08
323.15 K, x1 = 0.3077	1235.66	1401	4.37
323.15 K, x1 = 0.4023	1263.96	1398.1	6.22
323.15 K, x1 = 0.4933	1286.19	1394.3	8.23
323.15 K, x1 = 0.6022	1307.97	1392.7	10.45
323.15 K, x1 = 0.6993	1323.95	1390.7	12.72
323.15 K, x1 = 0.7929	1337.02	1388.2	15.19
323.15 K, x1 = 0.9008	1349.9	1385.5	18.05
323.15 K, x1 = 1	1359.07	1381.7	20.75

C[S+](C)[O-] [dimethyl sulfoxide] + CC#N
Settings	mass density [kg/m3]	speed of sound [m/s]	viscosity [mPa·s]
298.15 K, x1 = 0.0995	820.43	1299.5	0.42
298.15 K, x1 = 0.2061	862.88	1322.6	0.52
298.15 K, x1 = 0.2936	896.29	1346.2	0.57
298.15 K, x1 = 0.4055	935.15	1372	0.72
298.15 K, x1 = 0.5051	966.82	1395.1	0.86
298.15 K, x1 = 0.6001	994.77	1415.8	1.06
298.15 K, x1 = 0.7006	1022.53	1439.2	1.27
298.15 K, x1 = 0.8072	1050.32	1460.8	1.54
298.15 K, x1 = 0.8947	1071.95	1480.9	1.76
298.15 K, x1 = 1	1095.62	1490.5	2.03
303.15 K, x1 = 0.0995	815.06	1280.1	0.4
303.15 K, x1 = 0.2061	857.6	1303.8	0.49
303.15 K, x1 = 0.2936	891.05	1327.8	0.53
303.15 K, x1 = 0.4055	929.99	1354.1	0.67
303.15 K, x1 = 0.5051	961.71	1377.5	0.81
303.15 K, x1 = 0.6001	989.72	1398.5	0.97
303.15 K, x1 = 0.7006	1017.55	1422.2	1.17
303.15 K, x1 = 0.8072	1045.34	1443.9	1.42
303.15 K, x1 = 0.8947	1066.98	1464	1.6
303.15 K, x1 = 1	1090.62	1473.6	1.84
308.15 K, x1 = 0.0995	809.67	1260.6	0.39
308.15 K, x1 = 0.2061	852.28	1285	0.46
308.15 K, x1 = 0.2936	885.81	1309.9	0.52
308.15 K, x1 = 0.4055	924.82	1336.2	0.64
308.15 K, x1 = 0.5051	956.58	1360	0.75
308.15 K, x1 = 0.6001	984.67	1381.3	0.91
308.15 K, x1 = 0.7006	1012.57	1405.2	1.08
308.15 K, x1 = 0.8072	1040.36	1427	1.29
308.15 K, x1 = 0.8947	1062.01	1447.2	1.47
308.15 K, x1 = 1	1085.61	1456.8	1.67
313.15 K, x1 = 0.0995	804.26	1241.2	0.37
313.15 K, x1 = 0.2061	846.95	1266.1	0.44
313.15 K, x1 = 0.2936	880.52	1291	0.49
313.15 K, x1 = 0.4055	919.62	1318.8	0.6
313.15 K, x1 = 0.5051	951.43	1342.5	0.71
313.15 K, x1 = 0.6001	979.59	1364.1	0.85
313.15 K, x1 = 0.7006	1007.58	1388	1
313.15 K, x1 = 0.8072	1035.36	1410.3	1.19
313.15 K, x1 = 0.8947	1057.03	1431	1.35
313.15 K, x1 = 1	1080.6	1440	1.53
318.15 K, x1 = 0.0995	798.81	1221.8	0.35
318.15 K, x1 = 0.2061	841.59	1247.4	0.42
318.15 K, x1 = 0.2936	875.23	1272.7	0.47
318.15 K, x1 = 0.4055	914.41	1300.5	0.57
318.15 K, x1 = 0.5051	946.27	1325	0.67
318.15 K, x1 = 0.6001	974.52	1346.9	0.79
318.15 K, x1 = 0.7006	1002.73	1371.2	0.94
318.15 K, x1 = 0.8072	1030.38	1393.5	1.1
318.15 K, x1 = 0.8947	1052.04	1413.8	1.24
318.15 K, x1 = 1	1075.6	1423.3	1.41
323.15 K, x1 = 0.0995	793.34	1202.4	0.34
323.15 K, x1 = 0.2061	836.19	1228.6	0.4
323.15 K, x1 = 0.2936	869.91	1254.3	0.45
323.15 K, x1 = 0.4055	909.18	1282.7	0.54
323.15 K, x1 = 0.5051	941.1	1307.6	0.63
323.15 K, x1 = 0.6001	969.42	1329.7	0.75
323.15 K, x1 = 0.7006	997.71	1354.2	0.87
323.15 K, x1 = 0.8072	1025.37	1376.8	1.03
323.15 K, x1 = 0.8947	1047.05	1397.2	1.15
323.15 K, x1 = 1	1070.66	1406.7	1.3
